Read-outs that look alike come from different tables or passages of the source.
Experiments:
insulin receptor B = biological target: T1, insulin receptor B (Homo sapiens, UniProt P06213); assay: Insulin receptor B autophosphorylation in transfected cells (Cisbio Phospho-IR beta Tyr1150/1151 kit); type: cell-based; conditions: for Relative HI activity: relative to human insulin
T1 construct: expressed in transfected cells
Procedure: The phosphorylation level of insulin receptor B was detected by Cisbio's Phospho-IR beta (Tyr1150/1151) kit method to evaluate the biological activity of insulin. The cells were seeded into a 96-well plate overnight, and after the serum in the medium was removed, 40 μl of serum-free medium was added to culture for about 4 h. Then a dilution series of insulin derivatives were prepared with blank solution (0.6% casein, 0.06 mg/mL EDTA, 1×DPBS) and incubated with cells in the 96-well plate for 5 min in a CO2 incubator (37° C., 5% CO2). The liquid in the 96-well plate was poured off, 100 µL of a mixture of lysis buffer (2% Triton X-100, 150 mM NaCl, 50 mM HEPES, pH=7) and inhibitor (Blocking Reagent in the kit) was added to lyse the cells, then the plate was shaken at 350 rpm for 30 min. Relative activity (in percent (%)) was assessed by measuring insulin receptor phosphorylation levels in the supernatant after cell lysis and fitting a curve to the data using nonlinear regression in Graphpad Prism 5 software. Related assays were also used, in which the blank solution also contained 1.5% HSA to simulate physiological conditions. Changes in the phosphorylation levels of the insulin-activated insulin receptors of the invention were detected as an indirect reflection of the albumin binding activity.

[1] = tested on: STZ-induced type I diabetes mellitus (T1DM) C57BL/6 mice; assay: Hypoglycemic effect, repeated administration (four times) to STZ-induced T1DM C57BL/6 mice (Example 5); type: in vivo; design: key to random blood glucose: random blood glucose in mmol/L, Mean±SEM
Procedure: SPF grade C57BL/6 mice were reared in a suitable rearing box in a barrier environment, with a rearing temperature of 20-26° C., a humidity of 40-70%, a time between day and night of 12 h/12 h, and the mice had free access to standard food and autoclaved sterilization water. After a 3-day quarantine period and a 2-day acclimation period, the mice were fasted for 12 h, and the mice were injected intraperitoneally with streptozotocin solution (STZ, 13 mg/mL, in citrate buffer) or citrate buffer at 130 mg/kg (control group). 3 Days and 7 days after administration of streptozotocin, random blood glucose and fasting blood glucose were detected, and the random blood glucose value above 25 mmol/L and fasting blood glucose value above 11.1 mmol/L were selected as T1DM model mice for follow-up experiments. On the day before administration, random blood glucose was monitored and mice were weighed. Mice were divided into 4 groups according to random blood glucose and body weight.
Subcutaneous administration (S.C.) was used to administer the corresponding vehicle or drug, once every 4-5 days, for a total of 4 administrations. During the experiment, the animals were allowed to eat and drink water freely. The random blood glucose before the first administration, and 0.25, 0.5, 1, 2, 4, 6, 8, 10, 24, 48, 72, and 96 h after administration were assessed, as well as the random blood glucose before the second, third and fourth administration, and 1, 2, 4, 6, 8, 24, 48, 72, 96 and 120 h after administration.
(§1) All raw data were entered into Excel files and expressed as Mean±SEM. Statistical analysis of data was performed using Graphpad Prism 7.0 software, one-way or two-way ANOVA comparison method, and P<0.05 was used as the criterion for significant differences.

[2] = tested on: STZ-induced type I diabetes mellitus (T1DM) C57BL/6 mice; assay: Hypoglycemic effect, repeated administration (three times) to STZ-induced T1DM C57BL/6 mice (Example 6); type: in vivo; design: key to random blood glucose: blood glucose in mmol/L; conditions: for random blood glucose: 500 nmol/Kg S.C. three times, Mean ± SEM, n = 7
Procedure: SPF grade C57BL/6 mice were reared in a suitable rearing box in a barrier environment, with a rearing temperature of 20-26° C., a humidity of 40-70%, a time between day and night of 12 h/12 h, and the mice had free access to standard food and autoclaved sterilization water. After the 3-day quarantine period and the 2-day acclimation period, the mice were fasted for 12 h, and the mice were injected intraperitoneally with streptozotocin solution (STZ, 13 mg/mL, in citrate buffer) at 130 mg/kg. 3 Days and 7 days after administration of streptozotocin, random blood glucose and fasting blood glucose were detected, and the random blood glucose value above 25 mmol/L and fasting blood glucose value above 11.1 mmol/L were selected as T1DM model mice for follow-up experiments. On the day before administration, random blood glucose was monitored and mice were weighed. Mice were divided into 6 groups according to random blood glucose and body weight.
Subcutaneous administration (S.C.) was used to administer the corresponding vehicle or drug, once every 4-5 days, for a total of 3 administrations. During the experiment, the animals were allowed to eat and drink water freely. The random blood glucose before the first administration, and 0.25, 0.5, 1, 2, 4, 6, 8, 10, 24, 48, 72, and 96 h after administration were assessed, as well as the random blood glucose before the second and third administration, and 0.5, 1, 2, 6, 24, 48, 72, 96 and 120 h after administration.
as §1

[3] = rat, in vivo, iv, 10 nmol/kg
[4] = mouse, in vivo, sc, 10 nmol/kg

T1 sequence (P06213 28-758 limits assumed): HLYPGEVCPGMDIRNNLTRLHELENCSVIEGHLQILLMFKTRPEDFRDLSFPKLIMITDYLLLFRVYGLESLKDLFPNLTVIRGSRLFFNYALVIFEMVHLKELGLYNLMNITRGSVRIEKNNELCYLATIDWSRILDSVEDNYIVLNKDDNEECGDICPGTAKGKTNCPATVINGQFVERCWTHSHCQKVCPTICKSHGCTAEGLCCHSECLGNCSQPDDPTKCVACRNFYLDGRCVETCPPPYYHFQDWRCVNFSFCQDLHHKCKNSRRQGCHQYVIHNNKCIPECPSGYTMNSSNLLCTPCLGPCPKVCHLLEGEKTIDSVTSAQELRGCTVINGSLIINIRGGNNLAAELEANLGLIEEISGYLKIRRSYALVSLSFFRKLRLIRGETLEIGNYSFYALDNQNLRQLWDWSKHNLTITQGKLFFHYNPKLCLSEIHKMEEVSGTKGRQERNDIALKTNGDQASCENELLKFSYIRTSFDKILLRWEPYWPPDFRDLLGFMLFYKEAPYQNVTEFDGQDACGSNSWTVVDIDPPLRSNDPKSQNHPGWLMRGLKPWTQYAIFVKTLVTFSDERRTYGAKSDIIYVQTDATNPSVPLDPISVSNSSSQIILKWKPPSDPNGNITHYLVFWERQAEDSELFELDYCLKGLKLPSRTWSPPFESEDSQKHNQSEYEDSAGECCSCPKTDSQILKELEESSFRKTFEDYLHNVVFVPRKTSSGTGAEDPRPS
T1 sequence (P06213 763-1382 partner limits assumed): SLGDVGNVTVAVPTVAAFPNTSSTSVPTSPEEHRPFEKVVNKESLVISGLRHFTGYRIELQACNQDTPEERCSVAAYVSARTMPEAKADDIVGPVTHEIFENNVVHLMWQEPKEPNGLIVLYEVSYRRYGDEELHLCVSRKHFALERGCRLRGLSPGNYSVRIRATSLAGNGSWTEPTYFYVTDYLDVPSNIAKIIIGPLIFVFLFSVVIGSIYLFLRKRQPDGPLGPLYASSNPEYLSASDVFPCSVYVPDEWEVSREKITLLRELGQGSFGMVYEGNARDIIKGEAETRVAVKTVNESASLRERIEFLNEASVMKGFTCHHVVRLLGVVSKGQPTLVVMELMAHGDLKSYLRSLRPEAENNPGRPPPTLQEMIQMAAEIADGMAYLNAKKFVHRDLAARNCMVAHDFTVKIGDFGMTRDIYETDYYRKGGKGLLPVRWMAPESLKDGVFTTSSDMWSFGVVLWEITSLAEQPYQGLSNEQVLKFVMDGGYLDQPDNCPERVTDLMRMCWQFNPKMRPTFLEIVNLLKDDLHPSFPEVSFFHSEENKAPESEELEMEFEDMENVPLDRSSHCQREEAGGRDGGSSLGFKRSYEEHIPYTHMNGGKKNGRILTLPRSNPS

## A14E, B16E, B25H, B29K(N(ε)-COOH(CH2)18CO-L-Lys-CO(CH2)2CO—(OEG)2), desB30 human insulin analog [Insulin-a3]
Insulin receptor B; 0% HSA
  EC50: 213 nM
  Relative HI activity: 0.58%
Insulin receptor B; 1.5% HSA
  EC50: 4490 nM
  Relative HI activity: 0.06%
Insulin receptor B; 1.5% HSA relative to 0% HSA
  Relative 0% HSA activity: 5.86%
[1]; 1400 nmol/Kg S.C. four times
  glucose control effect and effective glucose control time compared with Insulin-a1: significantly better
[1]; 1400 nmol/Kg S.C., Insulin-a1 each administration, Insulin-a3 first and second administrations
  time after administration at which blood glucose reached the lowest level: 24 h
[1]; 1400 nmol/Kg S.C., after the first and second administrations
  time after administration at which blood glucose reached the normal level: 96 h
[1]; 1400 nmol/Kg S.C., after the third and fourth administrations
  time after administration at which blood glucose reached the normal level: 120 h
[1]; Day 0 (1st administration), 1400 nmol/Kg S.C. four times
  random blood glucose: 31.3 ± 3.1
[1]; Day 1, 1400 nmol/Kg S.C. four times
  random blood glucose: 17.4 ± 6.7
[1]; Day 4 (2nd administration), 1400 nmol/Kg S.C. four times
  random blood glucose: 26.9 ± 8.0
[1]; Day 5, 1400 nmol/Kg S.C. four times
  random blood glucose: 7.1 ± 3.8
[1]; Day 9 (3rd administration), 1400 nmol/Kg S.C. four times
  random blood glucose: 26.2 ± 7.9
[1]; Day 10, 1400 nmol/Kg S.C. four times
  random blood glucose: 8.6 ± 5.7
[1]; Day 14 (4th administration), 1400 nmol/Kg S.C. four times
  random blood glucose: 24.4 ± 5.7
[1]; Day 18, 1400 nmol/Kg S.C. four times
  random blood glucose: 19.7 ± 6.4
[1]; repeated administration, C57BL6 mice modeled by STZ
  time the effective glucose control effect can be maintained: 4-5 days/time
[2]; 500 nmol/Kg S.C.
  effective glucose control time: 96 to 120 h
[2]; Day 0 (1st)
  random blood glucose: 31.8 ± 3.2
[2]; Day 1
  random blood glucose: 20.7 ± 5.2
[2]; Day 4 (2nd)
  random blood glucose: 29.7 ± 3.7
[2]; Day 5
  random blood glucose: 20.1 ± 5.4
[2]; Day 9 (3rd)
  random blood glucose: 27.7 ± 6.2
[2]; Day 10
  random blood glucose: 16.0 ± 9.4
[2]; Day 14
  random blood glucose: 27.4 ± 6.3
[2]; 500 nmol/Kg S.C., after the first and second administrations
  time after administration at which blood glucose returned to normal level: 96 h
[2]; 500 nmol/Kg S.C., after the third administration
  time after administration at which blood glucose returned to normal level: 120 h
[2]; Icodec 250, 500 and 1000 nmol/kg, Insulin-a3 and Insulin-a10 500 nmol/Kg
  time after each administration at which blood glucose reached the lowest level: 24 h
[2]; test drug 500 nmol/Kg S.C.
  glucose control effect compared with the Icodec-500 nmol/kg group: better
  glucose control effect compared with the Icodec-1000 nmol/kg group: slightly worse
[3]
  AUClast: 9170 ng·h/mL
  T1/2: 11.2 ± 1.9 h
[4]
  AUClast: 12300 ng·h/mL
  T1/2: 18.6 h
